In PMC5222924, “Synergistic interplay of Gβγ and phosphatidylinositol 4,5-bisphosphate dictates Kv7.4 channel activity” (Pflugers Archiv, 2016):

Columns and labels:
Kv7.4 [1] = molecular target: T1, Kv7.4 (Homo sapiens, UniProt P56696); test: whole-cell patch clamp; format: cell-based; conditions: room temperature; opener, concentration not given; common approximate value for three openers
T1 construct: gene KCNQ4; full-length channel, homomer, stably expressed in HEK293 cells (line a gift from the University of Copenhagen)
T1 sequence (P56696 1-695): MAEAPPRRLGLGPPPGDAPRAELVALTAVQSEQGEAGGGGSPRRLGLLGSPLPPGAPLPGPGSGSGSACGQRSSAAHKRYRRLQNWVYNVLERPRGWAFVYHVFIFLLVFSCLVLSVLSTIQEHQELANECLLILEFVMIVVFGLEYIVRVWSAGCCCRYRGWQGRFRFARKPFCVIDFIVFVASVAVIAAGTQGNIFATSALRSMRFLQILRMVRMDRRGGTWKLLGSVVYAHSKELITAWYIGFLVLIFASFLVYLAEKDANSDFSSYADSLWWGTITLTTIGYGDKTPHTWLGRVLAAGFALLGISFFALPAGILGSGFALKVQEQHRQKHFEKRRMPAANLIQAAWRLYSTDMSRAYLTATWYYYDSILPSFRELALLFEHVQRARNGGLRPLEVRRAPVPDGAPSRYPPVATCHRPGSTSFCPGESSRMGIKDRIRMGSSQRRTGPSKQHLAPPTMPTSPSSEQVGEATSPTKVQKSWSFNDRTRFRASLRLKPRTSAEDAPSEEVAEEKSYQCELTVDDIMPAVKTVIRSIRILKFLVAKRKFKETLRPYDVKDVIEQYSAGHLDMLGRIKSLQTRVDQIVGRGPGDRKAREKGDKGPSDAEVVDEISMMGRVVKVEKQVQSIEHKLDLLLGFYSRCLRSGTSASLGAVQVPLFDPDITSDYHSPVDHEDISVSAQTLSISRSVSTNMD

Kv7.4 channel = Kv7.4 channel (UniProt P56696)
Kv7.4 [2] = molecular target: T1, Kv7.4; test: inside-out patch clamp, single-channel NPo; format: cell-based; conditions: room temperature; activator applied to excised patch, no added Gβγ; unreliable: saturation not reached, sigmoidal fit of pooled patches

## CCOC(=O)Nc1ccc(NCc2ccc(F)cc2)cc1N [Retigabine]
Kv7.4 [1]
  % increase of current at +20 mV: ~ 40%

## G-protein βγ subunits from bovine brain (from UniProt P62871 1-340; P63212 1-71) (complex)
Kv7.4 channel
  half maximal stimulation of Kv7.4 channel activity, inside-out excised patches, bath application of Gβγ (0.4–50 ng/ml): 8.1 ng/mL
  increase of whole-cell Kv7.4 current amplitude within 5 min of rupture, intracellular perfusion of active Gβγ (250 ng/ml), control cells: 70%

## NS15370
Kv7.4 [1]
  % increase of current at +20 mV: ~ 40%

## PIP2
Kv7.4 [2]
  half-maximal stimulation: ~ 117 μM
